{"source": "patent US9944666B2", "about": "“Compounds that are S1P modulating agents and/or ATX modulating agents” (BIOGEN MA INC., priority 2012, dated 2018)", "data": [{"biological_target": "T1, Human ATX protein (Homo sapiens, UniProt Q13822)", "T1 construct": "made in house", "assay": "ATX biochemical FRET assay with FS-3 substrate", "conditions": "FS-3 2 μM, ATX 1.0 μg/mL, room temperature 2 hours, fluorescence 485/538 nm", "excerpt": "ATX (Autotaxin) is a 125 KDa glycoprotein with lysophospholipase D (LPLD) activity that generates the bioactive lipid lysophosphatidic acid (LPA) from lysophosphatidylcholine (LPC). The ATX biochemical assay utilizes a FRET (fluorescence resonance energy transfer) technology platform. The fluorescence signal of FRET substrate FS-3 is quenched due to intra-molecular FRET of a fluorophore to a non-fluorescing quencher (Ferguson, C. G., et al., Org Lett. 2006 May 11; 8(10): 2023-2026, which is incorporated by reference in its entirety). ATX catalyzes the hydrolysis of the substrate which separates the dabsyl quencher from the fluorescein reporter, which becomes fluorescent. The reaction is monitored by a SpectraMax M5 (Molecular Devices, Sunnyvale, Calif.) with at excitation wavelength 485 nm and emission wavelength […].\nFatty acid free-BSA (Sigma A8806): 10 mg/ml, in H2O, stored at 4° C.\n2×ATX assay buffer: 100 mM Tris, 280 mM NaCl, 10 mM KCl, 2 mM CaCl2, 2 mM MgCl2, pH 7.4.\nHuman ATX protein: expressed and purified in house. Stored at −80° C.\nSubstrate FS-3 (Echelon, L-2000): 100 μg in 77.74 μL H2O (1 mM stock), stored at −20° C.\n384-well flat bottom plates—Corning #3575.\nCompound dilution—All compounds were provided at 10 mM in 100% DMSO. In the first well, 2 μL of 10 mM compound was added to 78 μL of DMSO (1:40 dilution). In subsequent wells 3-fold dilution (total 10 dilutions) were performed.\n1×ATX assay buffer was made up with a final concentration of 1 mg/mL fatty acid free-BSA using 2×ATX assay buffer, 10 mg/ml fatty acid free-BSA and ddH2O.\nATX protein was diluted with 1×ATX assay buffer to a concentration of 1.32 μg/mL (1.32×). 38 μL was added per well to the assay plate. The final concentration of ATX in the reaction as 1.0 μg/mL.\n2 μL per well of compounds was transferred to provide the desired concentration. The plate was centrifuged, then incubated at room temperature for 30 minutes on the shaker.\nFS-3 was diluted with 1×ATX assay buffer to a concentration of FS-3 of 10 μM (5×). Then, 10 μL was added per well to the assay plate. The final concentration of FS-3 in the reaction was 2 μM. The plate was centrifuged. The plate was kept shaking at room temperature for 2 hours. Because FS-3 substrate is light sensitive, plates were kept covered and protected from light.\nFluorescence was measured using SpectraMax M5 (excitation at 485 nm/emission at 538 nm, top read).", "units": {"IC50": "µM"}, "values": [{"smiles": "O=C(O)C1CC2CCC(C1)N2C(=O)Cc1ccc2c(C(F)(F)F)c(O[C@H]3CC[C@@H](C(F)(F)F)CC3)ccc2c1", "note": "(relative stereo) [Example 117, 2-(2-(5-(trifluoromethyl)-6-((cis-4-(trifluoromethyl)cyclohexyl)oxy)naphthalene-2-yl)acetyl)-2-azabicyclo[1.2.3]octane-7-carboxylic acid]", "IC50": "≤ 0.5"}, {"smiles": "CC(c1ccc2c(C(F)(F)F)c(O[C@H]3CC[C@@H](C(F)(F)F)CC3)ccc2c1)N1C2CCC1CC(C(=O)O)C2", "note": "(relative stereo) [Example 122, 8-(1-(5-(trifluoromethyl)-6-((cis-4-(trifluoromethyl)cyclohexyl)oxy)-naphthalene-2-yl)ethyl)-8-azabicyclo[3.2.1]octane-3-carboxylic acid]", "IC50": "≤ 0.1"}, {"smiles": "CC1(C)C2CCC1(C(=O)O)C(NCc1ccc3c(C(F)(F)F)c(O[C@H]4CC[C@@H](C(F)(F)F)CC4)ccc3c1)C2", "note": "(relative stereo) [Example 123, 3-(((5-(trifluoromethyl)-6-((cis-4-(trifluoromethyl)cyclohexyl)oxy)naphthalen-2-yl)methyl)amino)-7,7-dimethylbicyclo[2.2.1]heptane-4-carboxylic acid]", "IC50": "≤ 0.5"}, {"smiles": "CC(c1ccc2c(C(F)(F)F)c(O[C@H]3CC[C@@H](C)CC3)ccc2c1)N1C2CCC1CC(C(=O)O)C2", "note": "(relative stereo) [Example 124, 8-(1-(6-((cis-4-Methylcyclohexyl)oxy)-5-(trifluoromethyl)naphthalen-2-yl)ethyl)-8-azabicyclo[3.2.1]octane-3-carboxylic acid]", "IC50": "≤ 0.1"}, {"smiles": "C[C@H]1CC[C@@H](Oc2ccc3cc(C(=O)N4C5CCCC4CC(C(=O)O)C5)ccc3c2C(F)(F)F)CC1", "note": "(relative stereo) [Example 125, 9-(6-((cis-4-Methylcyclohexyl)oxy)-5-(trifluoromethyl)-2-naphthoyl)-9-azabicyclo[3.3.1]nonane-3-carboxylic acid]", "IC50": "≤ 0.25"}, {"smiles": "C[C@H]1CC[C@@H](Oc2ccc3cc(CN4C5COCC4CC(C(=O)O)C5)ccc3c2C(F)(F)F)CC1", "note": "(relative stereo) [Example 126, 9-((6-((cis-4-Methylcyclohexyl)oxy)-5-(trifluoromethyl)naphthalen-2-yl)methyl)-9-aza-7-oxa-bicyclo[3.3.1]nonane-3-carboxylic acid]", "IC50": "≤ 0.25"}, {"smiles": "CCC(c1ccc2c(C(F)(F)F)c(O[C@H]3CC[C@@H](C)CC3)ccc2c1)N1C2CCC1CC(C(=O)O)C2", "note": "(relative stereo) [Example 127, 8-(1-(6-((cis-4-Methylcyclohexyl)oxy)-5-(trifluoromethyl)naphthalen-2-yl)propyl)-8-azabicyclo[3.2.1]octane-3-carboxylic acid]", "IC50": "≤ 0.1"}, {"smiles": "CCC(c1ccc2c(C(F)(F)F)c(O[C@H]3CC[C@@H](C)CC3)ccc2c1)N1C2CCCC1CC(C(=O)O)C2", "note": "(relative stereo) [Example 128, 9-(1-(6-((cis-4-Methylcyclohexyl)oxy)-5-(trifluoromethyl)naphthalen-2-yl)propyl)-9-azabicyclo[3.3.1]nonane-3-carboxylic acid]", "IC50": "≤ 0.1"}, {"smiles": "C[C@H]1CC[C@@H](Oc2ccc3cc(CN4C5CC(O)CC4CC(C(=O)O)C5)ccc3c2C(F)(F)F)CC1", "note": "(relative stereo) [Example 129, 9-((6-((cis-4-Methylcyclohexyl)oxy)-5-(trifluoromethyl)naphthalen-2-yl)methyl)-7-hydroxy-9-aza-bicyclo[3.3.1]nonane-3-carboxylic acid]", "IC50": "≤ 0.5"}, {"smiles": "CC(c1ccc2c(C(F)F)c(O[C@H]3CC[C@@H](C)CC3)ccc2c1)N1C2CCCC1CC(C(=O)O)C2", "note": "(relative stereo) [Example 132, 9-(1-(5-(difluoromethyl)-6-((cis-4-methylcyclohexyl)oxy)naphthalen-2-yl)ethyl)-9-azabicyclo[3.3.1]nonane-3-carboxylic acid]", "IC50": "≤ 0.1"}, {"smiles": "CC(c1ccc2c(C(F)F)c(O[C@H]3CC[C@@H](C)CC3)ccc2c1)N1C2CCC1CC(C(=O)O)C2", "note": "(relative stereo) [Example 133, 8-(1-(5-(difluoromethyl)-6-((cis-4-methylcyclohexyl)oxy)naphthalen-2-yl)ethyl)-8-azabicyclo[3.2.1]octane-3-carboxylic acid]", "IC50": "≤ 0.1"}, {"smiles": "C[C@H]1CC[C@@H](Oc2ccc3cc(CN4C5CCC4CC(C(=O)O)C5)ccc3c2C(F)F)CC1", "note": "(relative stereo) [Example 134, 8-(1-(5-(difluoromethyl)-6-((cis-4-methylcyclohexyl)oxy)naphthalen-2-yl)methyl)-8-azabicyclo[3.2.1]octane-3-carboxylic acid]", "IC50": "≤ 0.1"}, {"smiles": "CCC(c1ccc2c(C(F)F)c(O[C@H]3CC[C@@H](C)CC3)ccc2c1)N1C2CCCC1CC(C(=O)O)C2", "note": "(relative stereo) [Example 135, 9-(1-(5-(difluoromethyl)-6-((cis-4-methylcyclohexyl)oxy)naphthalen-2-yl)propyl)-9-azabicyclo[3.3.1]nonane-3-carboxylic acid]", "IC50": "≤ 0.1"}, {"smiles": "O=C(O)C1CC12CN(Cc1ccc3c(C(F)(F)F)c(O[C@H]4CC[C@@H](C(F)(F)F)CC4)ccc3c1)C2", "note": "(relative stereo) [Example 149, 2-((5-(trifluoromethyl)-6-((cis-4-(trifluoromethyl)cyclohexyl)oxy)naphthalen-2-yl)methyl)-2-azaspiro[3.2]hexane-5-carboxylic acid]", "IC50": "≤ 0.25"}, {"smiles": "O=C(O)C1CCCC2CCN(Cc3ccc4c(C(F)(F)F)c(O[C@H]5CC[C@@H](C(F)(F)F)CC5)ccc4c3)CC21", "note": "(relative stereo) [Example 150, N-((5-(trifluoromethyl)-6-((cis-4-(trifluoromethyl)cyclohexyl)oxy)naphthalen-2-yl)methyl)-decahydroisoquinoline-8-carboxylic acid]", "IC50": "≤ 0.25"}, {"smiles": "O=C(O)C1CCCC(C2CN(Cc3ccc4c(C(F)(F)F)c(O[C@H]5CC[C@@H](C(F)(F)F)CC5)ccc4c3)C2)C1", "note": "(relative stereo) [Example 159, N-(5-trifluoromethyl-6-(cis-4-trifluoromethyl-cyclohexyloxy)-naphthalen-2-ylmethyl)-3-(azetidine-3-yl)-cyclohexane-1-carboxylic acid]", "IC50": "≤ 0.5"}, {"smiles": "O=C(O)C1CC2CCC1N2Cc1ccc2c(C(F)(F)F)c(O[C@H]3CC[C@@H](C(F)(F)F)CC3)ccc2c1", "note": "(relative stereo) [Example 165, 7-(5-trifluoromethyl-6-(cis-4-trifluoromethyl-cyclohexyloxy)-naphthalen-2-ylmethyl)-7-azabicyclo[2.2.1]heptane-2-carboxylic acid]", "IC50": "≤ 0.25"}, {"smiles": "O=C(O)C1CC2CC(O)CC(C1)N2Cc1ccc2c(C(F)(F)F)c(O[C@H]3CC[C@@H](C(F)(F)F)CC3)ccc2c1", "note": "(relative stereo) [Example 169, 9-(5-trifluoromethyl-6-(cis-4-trifluoromethyl-cyclohexyloxy)-naphthalen-2-ylmethyl)-7-hydroxy-9-azabicyclo[3.3.1]nonane-3-carboxylic acid]", "IC50": "≤ 0.5"}, {"smiles": "O=C1CC2CC(C(=O)O)CC(C1)N2Cc1ccc2c(C(F)(F)F)c(O[C@H]3CC[C@@H](C(F)(F)F)CC3)ccc2c1", "note": "(relative stereo) [Example 170, 9-(5-trifluoromethyl-6-(cis-4-trifluoromethyl-cyclohexyloxy)-naphthalen-2-ylmethyl)-7-oxo-9-azabicyclo[3.3.1]nonane-3-carboxylic acid]", "IC50": "≤ 0.5"}, {"smiles": "CC[C@H]1CC[C@@H](Oc2ccc3cc(CN4C5CCCC4CC(C(=O)O)C5)ccc3c2C(F)(F)F)CC1", "note": "(relative stereo) [Example 171, 9-((6-((cis-4-ethylcyclohexyl)oxy)-5-(trifluoromethyl)naphthalen-2-yl)methyl)-9-azabicyclo[3.3.1]nonane-3-carboxylic acid]", "IC50": "≤ 0.1"}, {"smiles": "CC[C@H]1CC[C@@H](Oc2ccc3cc(CN4C5CCC4CC(C(=O)O)C5)ccc3c2C(F)(F)F)CC1", "note": "(relative stereo) [Example 172, 8-((6-((cis-4-ethylcyclohexyl)oxy)-5-(trifluoromethyl)naphthalen-2-yl)methyl)-8-azabicyclo[3.2.1]octane-3-carboxylic acid]", "IC50": "≤ 0.25"}, {"smiles": "CC[C@H]1CC[C@@H](Oc2ccc3cc(C(C)N4C5CCCC4CC(C(=O)O)C5)ccc3c2C(F)(F)F)CC1", "note": "(relative stereo) [Example 175, 9-(1-(6-((cis-4-ethylcyclohexyl)oxy)-5-(trifluoromethyl)naphthalen-2-yl)ethyl)-9-azabicyclo[3.3.1]nonane-3-carboxylic acid]", "IC50": "≤ 0.1"}]}]}
